According to ChEMBL document CHEMBL1201862, “PubChem BioAssay data set” (2004):
One block for each molecule: values may come before it. Activity calls are given as the source filed them.

How the values were obtained:
[1] = target: Troponin, cardiac muscle (Homo sapiens, UniProt P19429+P45379+P63316); test: Fluorescence-based biochemical high throughput dose response assay for activators of the calcium sensitivity of cardiac Regulated Thin Filaments (RTF). [Related pubchem assays (depositor defined):AID493008, AID493018, AID504382, AID504383]; type: protein-complex assay
[2] = HEK-293T cell viability reduction – luminescence, B-cell screen hits, cytotoxicity control for BCR NF-kB inhibitor project, dose response (AID 489021); type: functional, cell-based;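 note: HEK-293T cells carrying an NF-kB luciferase reporter; cells exposed to compound for about 14 hours before viability readout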
[3] = target: T1, Cytochrome P450 2D6 (Homo sapiens, UniProt P10635);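 note: CYP2D6 member of a cytochrome P450 panel assay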
[4] = target: T1, Cytochrome P450 2D6; remark: listed apart in the source
[5] = target: T2, Eukaryotic translation initiation factor 2-alpha kinase 3 (Homo sapiens, UniProt Q9NZJ5); test: Dose response cell-based high-throughput screening assay to measure PERK inhibition. [Related pubchem assays: 1416 ]; type: functional
T2 sequence (Q9NZJ5 whole entry): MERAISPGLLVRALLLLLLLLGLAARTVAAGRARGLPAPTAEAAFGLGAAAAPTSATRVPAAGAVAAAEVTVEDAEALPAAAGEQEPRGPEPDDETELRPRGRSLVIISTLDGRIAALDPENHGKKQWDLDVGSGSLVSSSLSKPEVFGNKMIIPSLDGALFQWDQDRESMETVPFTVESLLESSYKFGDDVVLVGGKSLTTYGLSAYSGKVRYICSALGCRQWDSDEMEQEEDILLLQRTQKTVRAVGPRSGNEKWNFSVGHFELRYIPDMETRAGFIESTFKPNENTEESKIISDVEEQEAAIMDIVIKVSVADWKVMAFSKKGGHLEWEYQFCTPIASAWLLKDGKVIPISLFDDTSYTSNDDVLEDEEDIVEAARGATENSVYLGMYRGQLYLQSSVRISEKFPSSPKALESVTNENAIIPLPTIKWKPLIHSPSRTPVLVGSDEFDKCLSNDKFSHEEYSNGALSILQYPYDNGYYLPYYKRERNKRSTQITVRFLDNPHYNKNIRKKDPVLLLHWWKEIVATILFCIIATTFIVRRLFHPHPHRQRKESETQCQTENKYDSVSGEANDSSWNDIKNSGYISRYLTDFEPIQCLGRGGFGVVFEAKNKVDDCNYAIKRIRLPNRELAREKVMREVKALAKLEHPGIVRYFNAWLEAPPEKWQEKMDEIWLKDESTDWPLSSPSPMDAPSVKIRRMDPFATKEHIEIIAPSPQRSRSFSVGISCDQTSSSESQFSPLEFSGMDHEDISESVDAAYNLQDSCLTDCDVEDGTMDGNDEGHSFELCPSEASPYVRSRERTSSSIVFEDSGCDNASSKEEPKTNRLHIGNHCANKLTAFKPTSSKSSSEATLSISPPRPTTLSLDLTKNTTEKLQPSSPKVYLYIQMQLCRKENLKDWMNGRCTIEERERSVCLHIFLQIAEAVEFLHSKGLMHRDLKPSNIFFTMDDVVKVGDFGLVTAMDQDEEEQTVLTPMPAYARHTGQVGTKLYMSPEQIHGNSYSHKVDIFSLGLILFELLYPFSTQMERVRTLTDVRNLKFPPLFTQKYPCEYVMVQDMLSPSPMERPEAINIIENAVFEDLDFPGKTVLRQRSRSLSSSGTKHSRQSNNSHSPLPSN

[6] = target: T2, Eukaryotic translation initiation factor 2-alpha kinase 3; test: Counterscreen assay for PERK inhibitors: Dose response cell-based high throughput screening assay to measure inhibition of PERK at 6 hours. [Related pubchem assays: 1522, 1416 ]; type: functional
[7] = target: Melanin-concentrating hormone receptor 1 (Homo sapiens, UniProt Q99705); test: Late-stage fluorescence-based counterscreen for antagonists of the G-protein coupled receptor 7 (GPR7): cell-based dose response assay to identify antagonists of the melanin-concentrating hormone receptor 1 (MCHR1). [Related pubchem assays (depositor defined):AID1861, AID1880, AID1952, AID2148, AID2251, AID2257, AID485339]; type: functional;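 note: stimulated with 30 nM MCH peptide agonist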
[8] = target: T3, Neuropeptides B/W receptor type 1 (Homo sapiens, UniProt P48145); test: human NPBW1 receptor blockade, IC50 – cell-based, fluorescence, dose response, late-stage follow-up (AID 463251); type: functional
T3 sequence (P48145 whole entry): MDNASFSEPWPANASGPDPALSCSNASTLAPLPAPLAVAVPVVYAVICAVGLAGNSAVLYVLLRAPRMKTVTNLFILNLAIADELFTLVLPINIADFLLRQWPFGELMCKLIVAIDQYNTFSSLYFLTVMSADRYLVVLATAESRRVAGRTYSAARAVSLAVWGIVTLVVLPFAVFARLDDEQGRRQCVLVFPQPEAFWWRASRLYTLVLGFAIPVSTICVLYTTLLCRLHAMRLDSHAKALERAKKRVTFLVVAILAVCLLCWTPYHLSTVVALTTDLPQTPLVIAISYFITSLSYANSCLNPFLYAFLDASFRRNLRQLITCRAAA

[9] = target: Exodeoxyribonuclease V (Escherichia coli (strain K12), UniProt P04993+P07648+P08394); test: RecBCD inhibition via phage-restricted bacterial growth – absorbance, V66 E. coli, mutant T4 phage, counter-screen for AddAB inhibitor project, dose response (AID 492957); type: functional, cell-based, Escherichia coli str. K-12 substr. MG1655
[10] = Counterscreen for AddAB inhibitors: absorbance-based bacterial cell-based high throughput dose response assay for inhibitors of bacterial viability. [Related pubchem assays (depositor defined):AID435030, AID449728, AID449731, AID488942, AID488955, AID488956]; type: functional
[11] = decrease of insulin promoter-GFP reporter – imaging, high-content screening, mouse beta cells (AID 1628); type: functional; details: MIN6
[12] = test system: BJ; test: BJ-TERT fibroblast viability loss – cell-based, RAS-independent, luminescence, dose response (AID 1933); type: functional; details: Homo sapiens
[13] = MIN6 cell viability loss – mouse insulinoma, cytotoxicity control, dose response (AID 2122); type: functional;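 note: confirmatory high-throughput counterscreen run to flag cytotoxic compounds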
[14] = test system: BJ; test: cells; type: functional, cell-based; details: Homo sapiens
[15] = test system: BJ; test: BJ-TERT-LT-ST fibroblast viability loss – cell-based, RAS-independent, luminescence, dose response (AID 1935); type: functional; details: Homo sapiens;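 note: BJ fibroblasts immortalized with TERT plus LT and ST oncogenes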
[16] = DRD fibroblast viability loss – cell-based, non-viral oncogenic, luminescence, dose response (AID 1934); type: functional; details: Homo sapiens
[17] = test system: BJ; test: growth inhibition of engineered Ras-driven BJ cells – cell-based, alamar blue fluorescence, cherrypicked samples, dose response (AID 2631); type: functional; details: Homo sapiens;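 note: confirmatory dose-response assay in RAS-dependent BJ fibroblasts engineered with TERT, LT and ST, with cytotoxicity read by fluorescence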

T1 sequence (P10635 whole entry): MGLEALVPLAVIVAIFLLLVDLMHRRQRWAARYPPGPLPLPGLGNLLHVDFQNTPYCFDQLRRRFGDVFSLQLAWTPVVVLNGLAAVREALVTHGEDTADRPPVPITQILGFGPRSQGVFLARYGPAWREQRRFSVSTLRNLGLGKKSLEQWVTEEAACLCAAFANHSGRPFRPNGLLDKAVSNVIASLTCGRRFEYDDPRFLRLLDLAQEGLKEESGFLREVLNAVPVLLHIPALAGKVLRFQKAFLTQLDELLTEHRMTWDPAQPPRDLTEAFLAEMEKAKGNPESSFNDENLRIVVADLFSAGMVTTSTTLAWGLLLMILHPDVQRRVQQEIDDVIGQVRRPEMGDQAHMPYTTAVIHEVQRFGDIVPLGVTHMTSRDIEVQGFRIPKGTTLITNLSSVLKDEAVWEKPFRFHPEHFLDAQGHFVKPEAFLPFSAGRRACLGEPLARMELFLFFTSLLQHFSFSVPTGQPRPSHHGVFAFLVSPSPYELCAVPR
Sequence of Melanin-concentrating hormone receptor 1 (Q99705 whole entry): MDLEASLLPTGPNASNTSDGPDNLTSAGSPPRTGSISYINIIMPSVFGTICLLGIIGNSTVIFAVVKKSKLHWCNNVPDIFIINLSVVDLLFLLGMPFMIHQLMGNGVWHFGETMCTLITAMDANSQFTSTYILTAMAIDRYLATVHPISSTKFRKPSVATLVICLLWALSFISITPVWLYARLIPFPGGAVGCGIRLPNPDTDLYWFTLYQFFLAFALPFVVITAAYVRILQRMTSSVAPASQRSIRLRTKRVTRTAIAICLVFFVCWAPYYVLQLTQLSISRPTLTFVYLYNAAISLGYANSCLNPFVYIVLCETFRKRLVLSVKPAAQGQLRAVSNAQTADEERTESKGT
Sequence of Exodeoxyribonuclease V (P04993 whole entry): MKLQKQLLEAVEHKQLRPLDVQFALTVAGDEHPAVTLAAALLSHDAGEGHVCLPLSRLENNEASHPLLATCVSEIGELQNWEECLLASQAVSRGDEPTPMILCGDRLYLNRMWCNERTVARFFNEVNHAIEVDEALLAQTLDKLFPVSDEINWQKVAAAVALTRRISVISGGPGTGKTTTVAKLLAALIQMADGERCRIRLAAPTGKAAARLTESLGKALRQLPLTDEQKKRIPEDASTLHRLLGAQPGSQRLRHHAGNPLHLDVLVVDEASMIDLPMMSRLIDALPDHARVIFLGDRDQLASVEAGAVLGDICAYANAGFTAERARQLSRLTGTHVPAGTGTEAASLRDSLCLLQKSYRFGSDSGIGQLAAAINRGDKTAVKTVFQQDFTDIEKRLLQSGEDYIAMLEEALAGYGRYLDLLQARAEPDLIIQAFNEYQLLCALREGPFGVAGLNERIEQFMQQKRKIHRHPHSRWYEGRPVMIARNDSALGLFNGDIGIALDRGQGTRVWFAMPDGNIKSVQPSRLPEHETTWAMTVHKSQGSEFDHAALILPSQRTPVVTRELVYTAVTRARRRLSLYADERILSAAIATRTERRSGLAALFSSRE
Sequence of Exodeoxyribonuclease V (P07648 whole entry): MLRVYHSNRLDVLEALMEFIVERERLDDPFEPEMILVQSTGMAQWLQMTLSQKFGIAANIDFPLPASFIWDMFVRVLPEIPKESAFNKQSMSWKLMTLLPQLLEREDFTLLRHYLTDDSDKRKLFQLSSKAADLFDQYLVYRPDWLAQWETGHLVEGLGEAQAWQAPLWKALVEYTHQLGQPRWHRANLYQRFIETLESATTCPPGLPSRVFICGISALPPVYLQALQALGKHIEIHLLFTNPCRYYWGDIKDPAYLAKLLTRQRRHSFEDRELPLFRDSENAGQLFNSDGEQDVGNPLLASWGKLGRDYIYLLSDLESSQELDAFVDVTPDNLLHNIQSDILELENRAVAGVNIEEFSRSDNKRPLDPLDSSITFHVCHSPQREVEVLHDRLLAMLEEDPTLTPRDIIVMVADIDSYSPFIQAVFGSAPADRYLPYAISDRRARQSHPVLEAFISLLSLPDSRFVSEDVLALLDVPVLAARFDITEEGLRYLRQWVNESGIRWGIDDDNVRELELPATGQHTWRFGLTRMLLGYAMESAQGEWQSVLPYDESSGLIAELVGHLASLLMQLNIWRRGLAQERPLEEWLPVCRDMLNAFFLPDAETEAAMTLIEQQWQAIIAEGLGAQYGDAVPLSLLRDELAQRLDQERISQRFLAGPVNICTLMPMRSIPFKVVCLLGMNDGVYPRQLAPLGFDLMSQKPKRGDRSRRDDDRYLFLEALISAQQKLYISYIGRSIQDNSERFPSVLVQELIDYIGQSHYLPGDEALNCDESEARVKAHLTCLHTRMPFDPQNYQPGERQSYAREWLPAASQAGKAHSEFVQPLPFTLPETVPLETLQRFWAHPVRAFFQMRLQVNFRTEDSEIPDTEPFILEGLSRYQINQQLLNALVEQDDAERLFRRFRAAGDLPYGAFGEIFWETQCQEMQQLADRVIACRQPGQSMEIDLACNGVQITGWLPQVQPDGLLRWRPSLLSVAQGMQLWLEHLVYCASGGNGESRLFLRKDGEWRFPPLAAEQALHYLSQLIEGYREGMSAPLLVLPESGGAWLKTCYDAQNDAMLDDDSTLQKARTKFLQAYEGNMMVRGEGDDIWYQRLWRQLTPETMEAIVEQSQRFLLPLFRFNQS
Sequence of Exodeoxyribonuclease V (P08394 whole entry): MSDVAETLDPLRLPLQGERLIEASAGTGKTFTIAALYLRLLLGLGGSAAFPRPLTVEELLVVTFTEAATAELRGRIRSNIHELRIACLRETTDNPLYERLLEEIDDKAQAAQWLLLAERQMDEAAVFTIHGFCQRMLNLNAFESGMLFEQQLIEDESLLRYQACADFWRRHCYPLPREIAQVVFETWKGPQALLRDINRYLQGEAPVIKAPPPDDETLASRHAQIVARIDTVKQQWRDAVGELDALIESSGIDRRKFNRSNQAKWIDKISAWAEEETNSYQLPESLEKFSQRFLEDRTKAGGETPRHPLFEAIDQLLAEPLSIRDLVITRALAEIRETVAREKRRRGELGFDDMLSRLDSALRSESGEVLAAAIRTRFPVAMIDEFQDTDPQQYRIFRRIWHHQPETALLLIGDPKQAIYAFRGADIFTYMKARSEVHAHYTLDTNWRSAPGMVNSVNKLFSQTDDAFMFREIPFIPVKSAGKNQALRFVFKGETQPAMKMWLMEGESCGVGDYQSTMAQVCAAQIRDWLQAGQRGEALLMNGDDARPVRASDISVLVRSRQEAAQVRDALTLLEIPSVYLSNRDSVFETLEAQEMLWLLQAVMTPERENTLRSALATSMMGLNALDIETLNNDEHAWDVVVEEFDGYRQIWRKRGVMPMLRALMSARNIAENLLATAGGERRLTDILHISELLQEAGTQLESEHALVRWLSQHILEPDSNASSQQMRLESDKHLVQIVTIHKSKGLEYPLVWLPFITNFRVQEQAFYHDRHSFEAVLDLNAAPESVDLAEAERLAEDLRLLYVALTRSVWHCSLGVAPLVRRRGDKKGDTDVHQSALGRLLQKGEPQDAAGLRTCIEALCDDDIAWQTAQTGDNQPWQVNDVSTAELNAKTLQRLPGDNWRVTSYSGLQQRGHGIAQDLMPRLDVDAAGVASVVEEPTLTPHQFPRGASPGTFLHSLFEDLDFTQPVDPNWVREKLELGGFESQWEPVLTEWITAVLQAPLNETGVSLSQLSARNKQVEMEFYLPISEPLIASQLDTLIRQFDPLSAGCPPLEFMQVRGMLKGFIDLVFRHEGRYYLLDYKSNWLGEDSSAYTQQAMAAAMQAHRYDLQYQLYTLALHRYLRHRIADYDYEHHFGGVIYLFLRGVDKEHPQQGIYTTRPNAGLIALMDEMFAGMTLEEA

Structure (SMILES): COc1ccccc1/C=C1\SC(=S)N(CCC(=O)NC2=NCCS2)C1=O
IC50 [2]: > 80 µM (inactive)

Structure (SMILES): CCn1cc(C(=O)NCCc2ccccc2)c(=O)c2cc(F)c(N3CCN(C)CC3)cc21
IC50 [9]: > 118 µM (inactive)
IC50 [10]: 27.1 µM (inactive)

Structure (SMILES): COc1ccc(-c2ccoc2)cc1[C@H]1[C@H]2C=CC[C@@H](C)[C@@H]2C(=O)N1Cc1ccccc1
IC50 [2]: > 80 µM (inactive)

Structure (SMILES): O=C(NCc1cccnc1)c1ccc(NC(=O)c2cccc([N+](=O)[O-])c2)cc1
IC50 [11]: 0.576 µM (active)
EC50 [12]: 27.4 µM (active)
IC50 [13]: > 16 µM (inactive)
EC50 [14]: 2.19 µM (inconclusive)
EC50 [15]: 19.3 µM (active)
EC50 [16]: > 150 µM (not active)
EC50 [17]: 36 µM (active)

The remaining lines, values ahead:

EC50 [1]: 24.4 µM (inactive)
Structure (SMILES): CCOC(=O)c1cc2n(c1N)-c1ccccc1C2=O

AC50 [3]: 10 µM (inconclusive)
AC50 [4]: 10 µM (inconclusive)
Structure (SMILES): CC(=O)Oc1cc(C(C)C)c(OCCN(C)C)cc1C [MOXISYLYTE]

EC50 [5]: > 55.7 µM (not active)
EC50 [6]: > 55.7 µM (not active)
Structure (SMILES): C/N=C1\SC(CC(=O)Nc2ccccc2F)C(=O)N1C (centres undefined)

IC50 [7]: 20 µM (inactive)
IC50 [8]: > 20 µM (inactive)
Structure (SMILES): COc1ccc(Oc2c(-c3ccccc3)cnn(-c3ccc(C)cc3)c2=O)cc1

AC50 [4]: inconclusive
Structure (SMILES): CC(=O)N1c2ccc(S(=O)(=O)CCC(=O)O)cc2CC1C (centres undefined)
